The record followed here is USRE49873E1, “APP specific bace inhibitors (ASBIs) and uses thereof” (BUCK INSTITUTE FOR RESEARCH ON AGING, priority 2012, dated 2024).

One data set is described as follows: in vivo. More on the design: species or system mice. Particulars: mouse; for brain Cmax of galangin: sc, 10 mg/kg. The protocol:
The brain penetrance of galangin and progalangin were assessed in a standard PK comprising subcutaneous (Sub-Q) injection of 5 adult non-transgenic mice with 50 ul of a 5 mg/ml stock of compound in dimethylsulfoxide (DMSO) or a dose of 10 mg/kg for a 25 g mouse. Injected mice were anesthetized with ketamine/xylazine at 1, 2, 4, 6, and 8 hours and blood collected by cardiac puncture. The mice were then perfused with saline and brain tissue dissected and snap frozen on dry ice. Blood was centrifuged at 3000 rpm for 10 minutes and the plasma supernatant collected. Both plasma and the right hemibrain were sent to Integrated Analytical Solutions (IAS, Berkeley, Calif.) with a reference sample of compound for compound level analysis in tissue and plasma. The compound levels were determined using a LC-MS/MS approach.
CNS exposure studies were performed and consisted of a time-course design to collect heparinized plasma and brains. Following sc administration of the galangin or progalangin (compound-2) at 10 mg/kg, plasma and brain levels of the compounds were determined by quantitative LC/MS/MS methodology. Plasma samples were precipitated with acetonitrile:methanol (1:1) cocktail containing an internal standard. The brain samples were homogenized directly in ethylacetate or extracted from 5M guanidine homogenates with the liquid-liquid method. The resulting supernatant was evaporated to dryness and subjected to the LC/MS/MS analysis. For each compound 5 mice were used for the analysis. The brain-to-plasma ratios and plasma/brain Cmax levels were then determined (see, e.g., FIG. 8).

For data set [1], the system named is Aβ1-40 and Aβ1-42 levels in hippocampal/entorhinal cortical tissue. The data set is described as follows: Pilot efficacy testing in PDAPP (J20) AD model mice, Aβ ELISA. The data set is classed as in vivo. Particulars: 40 mpk sc daily for 14 days, hippocampus and cortex, 40 mg/kg. How it is done: Galangin and progalangin (PG-1) were dissolved in 10% solutol/15% DMSO/75% polyethylene glycol (PEG). Stock solutions were prepared at 10 mg/ml for each compound and 100 ul was injected subcutaneously daily for 14 days at a dose of 40 mkd. There were 5 PDAPP AD model J20 mice in both the galangin and progalangin groups, and 9 vehicle-only treated J20 controls. Mice were anesthetized, blood collected for plasma, and brain tissue collected as described above 2 hours after injection on the last day of treatment. The right hemibrain was further microdissected to isolate hippocampus and entorhinal cortex and this combined tissue was used for biochemical analysis. The remaining tissue and plasma was sent to IAS for compound level analysis.
Aβ1-42 and Aβ1-40 levels were determined using the hippocampal/entorhinal cortical tissue. Briefly, frozen tissue samples were weighed, and a 20% w/v sonicate prepared in 5M guandine-HCl/50 mM Tris, pH8. Sonication was performed with sample tubes in ice water, 4×5 seconds at 60 Hz, then 3×5 seconds at 80 Hz. Samples were then rotated at room temperature for 3 hours and frozen at −20° C. until assay. Invitrogen ELISA kits were used for Aβ1-40 and Aβ1-42 according to the manufacturer's instructions.
(In general: ELISA stands for enzyme-linked immunosorbent assay.)

The subject of data set [2] is APP-Gal4 transactivation in HEK293T cells. Description: APP-Gal4/Mint3/TAZ transactivation assay. The data set is classed as cell-based. Conditions: Mint3 and TAZ present; galangin at 10 μM. From the text:
(§1) FIGS. 7A and 7B illustrate inhibition of APP-Gal4 and APLP2-Gal4 transactivation by galangin. […] This transactivation was inhibited by Galangin and BACE inhibitor IV. FIG. 7B: Potent transactivation of transcription was also achieved with APLP2 fused to the Gal4 DNA binding domain when both Mint3 and TAZ were present. This transactivation was inhibited by Galangin and BACE inhibitor IV. […] The normalized luciferase activity is expressed as a percentage of the DMSO treated control (FIGS. 7A, 7B). Error bars indicate SEM. (*, p<0.05; **, p<0.01; ***, p<0.001; n=3, student t test).
(§2) This assay system is described by Orcholski et al. (2011) J. Alzheimers Dis., 23(4):689-699. Transactivation is achieved upon transfection with Mint3 and Taz. The ASBI was expected to inhibit only the transactivation of APP-Gal4, not that of APLP2-Gal4. For these experiments cells were co-transfected with a Gal4-luciferase reporter plasmid (to measure transactivation), a beta-galactosidase plasmid (to normalize for transfection efficiency), and the test plasmids identified. The normalized luciferase activity was expressed as fold induction over transcription by APP-Gal4 alone (FIG. 7A), or as fold induction over APLP2-Gal4 alone (FIG. 7B).
(§3) HEK293T cells were co-transfected with five plasmids: (1) pG5E1B-luc, 0.3 μg; (2) pCMV-LacZ, 0.1 μg; (3) pMst-APP (APP-Gal4) or pcDNA3.1-APLP2-Gal4, 0.3 μg; (4) pCMV5-Mint3, 1.0 μg; (5) pEF-N-FLAG-TAZ, 1.0 μg. Cells were harvested 48 hr after transfection in 0.2 ml per well Cell Culture Lysis Buffer (Promega), and their luciferase and β-galactosidase activities were determined with the Promega luciferase assay kit and the Promega β-galactosidase assay kit, respectively. The luciferase activity was standardized by the β-galactosidase activity to control for transfection efficiency and general effects on transcription. Transfections were performed at 80-90% cofluency in six-well plates using Lipofectamine 2000 (Invitrogen).

The test system of data set [3] is APLP2-Gal4 transactivation in HEK293T cells. Description: APLP2-Gal4/Mint3/TAZ transactivation assay. Conditions: Mint3 and TAZ present; galangin at 10 μM. The data set is classed as cell-based.
Text: as §1, §2, §3

For the molecule `CC(=O)Oc1cc(OC(C)=O)c2c(=O)c(O)c(-c3ccccc3)oc2c1` [PG-1, 5,7-Diacetoxy-3-hydroxyflavone], in the data set “in vivo”, the “galangin levels after PG-1 injection versus galangin itself” value was “much higher”, the “plasma levels versus brain tissue levels” value is “Plasma levels were greater than brain tissue levels” and the “brain Cmax of galangin” value is around 100 ng/g. Further, in data set [1], the “Aβ1-40 (Aβ40) levels in brain” value is given as “more effective in vivo than galangin” and the “Aβ1-42 (Aβ42) levels in brain” value is given as “more effective in vivo than galangin”. Further, in data set [1] (listed as pro-galangin I), the “Aβ1-40 (Aβ40) levels in brain” value is “slightly lowered” and the “Aβ1-42 (Aβ42) levels in brain” value is reported as “slightly lowered”. For the same molecule, in data set [1] (listed as progalangin), the “Aβ1-40 (Aβ40) levels in brain” value was “reduction” and the “Aβ1-42 (Aβ42) levels in brain” value is given as “reduction”.
Consider `C[C@@H]1O[C@@H](OC[C@H]2O[C@@H](Oc3c(-c4ccc(O)c(O)c4)oc4cc(O)cc(O)c4c3=O)[C@H](O)[C@@H](O)[C@@H]2O)[C@H](O)[C@H](O)[C@H]1O` [Rutin], for which, in the data set “in vivo”, the brain penetration entry was “does not cross the blood-brain barrier” and the “brain Cmax of galangin” value is recorded as “no rutin was detectable in the brain”.
Regarding BACE inhibitor IV [reference compound], in data set [2], the APP-Gal4 transactivation result is listed as “inhibited”. In data set [3], the APLP2-Gal4 transactivation entry was “inhibited”.
